Peptide text beside a SMILES is read from it. * marks the point of attachment. Cbz = O=C(OCc1ccccc1)*; CH2F = FC*
What was measured:
4T1 cells [1] = assay: LDH release assay (CyQUANT); type: cell-based, murine; conditions: N = 3; for effect of inhibitor pretreatment on CKS1-induced release of LDH: 30 min pre-treatment (50 µM Z-VAD, 50 µM Nec-1s, 1 µM Fer-1), then 100 µM CKS1 6 hours; for release of LDH (oncolytic activity): 100 µM of the indicated peptides for 6 h, normalized to lysis buffer
Experimental: Ten thousand cells were seeded in a 96-well plate and incubated overnight. The cells were washed once, and the medium was replaced with serum-free media. Cells were treated with CKS1 for the indicated time and concentration. CyQUANT LDH cytotoxicity assay (Thermo Fisher Scientific) was used following the manufacturer’s instructions to measure the release of LDH. LDH release was normalized to the amount of LDH released from cells treated with lysis buffer.

4T1 cells [2] = assay: Calcein-AM live cell imaging of cytosol release; type: cell-based, murine; conditions: 4T1 cells, 50 µM Z-VAD 30 minutes, then 100 µM CKS1
Experimental: Fluorescence labeling of cells was performed by seeding 5.0 × 10^4 4T1 cells in a 35 mm dish on a collagen-coated No. 1.5 coverslip with a 14 mm glass diameter (MatTek, Ashland, MA). After overnight incubation, the cells were washed once with serum-free media and replaced with fresh serum-free media. For cell cytosol labeling, Calcein-AM (Thermo Fisher Scientific, C1430) was added at a final concentration of 5 µg/mL and incubated for 10 min. For mitochondrial membrane labeling, JC-1 (Thermo Fisher Scientific, T3168) was added at a final concentration of 10 µg/mL and incubated for 10 min. To monitor the activity of caspases, CellEvent Caspase-3/7 Red detection reagents (Thermo Fisher Scientific, C10423) were used following the manufacturer’s instructions. For nuclear staining, Hoechst 33342 (Cell Signaling Technology, #4082) was added at a final concentration of 5 µg/mL and incubated for 10 min.
Cells were imaged on either a Zeiss LSM 700 or a 3i spinning disk confocal microscope. Samples were imaged with optimized microscope settings. Z-stack, time-lapse, or multi-channel acquisition settings were adjusted based on the experimental requirements. Images were then acquired with the appropriate excitation and emission wavelengths for each fluorophore.
Image processing was performed using Fiji software. For each image/video, the brightness and the contrast were adjusted. The time stamp and the scale bar were added. For quantification, CellProfiler was used. After cell segmentation based on the nucleus, the intensity of the signal of interest was quantified for each cell. Based on the intensity, each cells were labeled as positive or negative and the fraction of positive cells was calculated.

Solubility in water = conditions: data not shown
caspase-3 = conditions: cited from earlier work
From the text: The factors that determine whether a peptide induces apoptosis or not are not fully known. […] Although the mechanism of how CKS1 treatment affects the mitochondria remains unanswered, the malfunctioning of mitochondria caused by CKS1 may be the ...

Compound	effect of inhibitor pretreatment on CKS1-induced release of LDH (4T1 cells [1])	release of LDH (oncolytic activity) (4T1 cells [1])	other results
CCOC(=O)c1ccc(NC2CCCCC2)c(N)c1 [Fer-1, ferrostatin-1, reference compound]	did not inhibit the release of LDH		
COC(=O)C[C@H](NC(=O)[C@H](C)NC(=O)[C@@H](NC(=O)OCc1ccccc1)C(C)C)C(=O)CF [Z-VAD, reference compound] (Cbz-Val-Ala-Asp(OMe)-CH2F)	did not inhibit the release of LDH		effect of inhibitor pretreatment on CKS1-induced release of calcein (4T1 cells [2]): did not inhibit nor slow down the release of calcein
NGRKACLNPASP [loop region of CKS1, peptide that contains the N-terminal loop region of CKS1]		did not	
NGRKACLNPASPIVKKIIPEKMLNS [NC2, mutant of CKS1, single proline inserted in the middle of the α-helix]		did not show oncolytic activity	
CN1C(=O)NC(Cc2c[nH]c3c(Cl)cccc23)C1=O (stereo not shown) [Nec-1s, necrostatin-1 stable, reference compound]	did not inhibit the release of LDH		
IVKKIIEKMLNS [helical region of CKS1]		induced LDH release	solubility in water (Solubility in water): poorly soluble in water
LTX-315			caspase-3 activity (caspase-3): failed to stimulate caspase-3 activity
NGRKACLNPASPIVEEIIEEMLNS [NC1, mutant of CKS1, three lysines replaced with glutamic acids, anionic]		did not show oncolytic activity	
